ChEMBL document CHEMBL1909046, “DrugMatrix in vitro pharmacology data”

Tests used:
[1] = DRUGMATRIX: Tumor Necrosis Factor (TNF), Non-Selective radioligand binding (ligand: [125I] TNF-alpha); format: cell membranes, Membrane; conditions: u-937; Not Active = under 50% inhibition at 10 µM
[2] = biological target: Vasopressin V1a receptor (Homo sapiens, UniProt P37288); format: cell membranes, Membrane; conditions: hek293; also: in other assays of this panel Not Active means under 50% inhibition at 10 µM
Chain of Vasopressin V1a receptor (P37288 whole entry): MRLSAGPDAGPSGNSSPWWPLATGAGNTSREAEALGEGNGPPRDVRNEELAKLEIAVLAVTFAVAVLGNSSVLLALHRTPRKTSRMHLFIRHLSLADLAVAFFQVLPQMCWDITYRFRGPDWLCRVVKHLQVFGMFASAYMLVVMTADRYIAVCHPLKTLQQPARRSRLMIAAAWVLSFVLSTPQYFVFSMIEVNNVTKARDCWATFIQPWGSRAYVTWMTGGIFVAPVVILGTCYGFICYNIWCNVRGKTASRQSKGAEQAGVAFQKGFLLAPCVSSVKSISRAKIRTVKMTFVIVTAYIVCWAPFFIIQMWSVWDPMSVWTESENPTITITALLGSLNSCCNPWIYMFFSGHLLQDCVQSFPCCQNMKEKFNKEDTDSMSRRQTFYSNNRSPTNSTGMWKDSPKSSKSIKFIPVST

[3] = DRUGMATRIX: Calcium Channel Type L, Phenylalkylamine radioligand binding (ligand: [3H] (-)-Desmethoxyverapamil (D-888)); format: cell membranes, Rattus norvegicus, Wistar, Brain, Membrane; conditions: Not Active = under 50% inhibition at 10 µM
[4] = biological target: Insulin receptor (Rattus norvegicus, UniProt P15127); format: cell membranes, Wistar, Liver, Membrane; also: in other assays of this panel Not Active means under 50% inhibition at 10 µM
Chain of Insulin receptor (P15127 27-759 limits assumed): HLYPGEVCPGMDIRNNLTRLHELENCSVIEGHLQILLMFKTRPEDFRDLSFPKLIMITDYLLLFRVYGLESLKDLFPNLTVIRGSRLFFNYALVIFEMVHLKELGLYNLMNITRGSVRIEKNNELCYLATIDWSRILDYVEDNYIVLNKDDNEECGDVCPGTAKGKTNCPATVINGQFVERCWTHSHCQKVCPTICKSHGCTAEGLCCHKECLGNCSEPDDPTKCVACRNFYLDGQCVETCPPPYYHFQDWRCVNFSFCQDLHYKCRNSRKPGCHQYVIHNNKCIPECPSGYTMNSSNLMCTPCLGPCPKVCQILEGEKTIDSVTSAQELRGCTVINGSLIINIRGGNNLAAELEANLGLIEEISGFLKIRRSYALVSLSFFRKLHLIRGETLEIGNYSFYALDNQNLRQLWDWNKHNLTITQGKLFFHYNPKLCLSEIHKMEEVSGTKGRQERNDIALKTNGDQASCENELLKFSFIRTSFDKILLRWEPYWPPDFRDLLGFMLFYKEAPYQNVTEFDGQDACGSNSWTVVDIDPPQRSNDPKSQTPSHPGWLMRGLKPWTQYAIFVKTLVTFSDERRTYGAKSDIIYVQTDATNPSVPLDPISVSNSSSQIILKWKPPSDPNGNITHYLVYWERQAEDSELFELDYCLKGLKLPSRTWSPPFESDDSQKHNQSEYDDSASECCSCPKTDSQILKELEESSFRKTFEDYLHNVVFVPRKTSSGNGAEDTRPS
Chain of Insulin receptor (P15127 764-1383 limits assumed): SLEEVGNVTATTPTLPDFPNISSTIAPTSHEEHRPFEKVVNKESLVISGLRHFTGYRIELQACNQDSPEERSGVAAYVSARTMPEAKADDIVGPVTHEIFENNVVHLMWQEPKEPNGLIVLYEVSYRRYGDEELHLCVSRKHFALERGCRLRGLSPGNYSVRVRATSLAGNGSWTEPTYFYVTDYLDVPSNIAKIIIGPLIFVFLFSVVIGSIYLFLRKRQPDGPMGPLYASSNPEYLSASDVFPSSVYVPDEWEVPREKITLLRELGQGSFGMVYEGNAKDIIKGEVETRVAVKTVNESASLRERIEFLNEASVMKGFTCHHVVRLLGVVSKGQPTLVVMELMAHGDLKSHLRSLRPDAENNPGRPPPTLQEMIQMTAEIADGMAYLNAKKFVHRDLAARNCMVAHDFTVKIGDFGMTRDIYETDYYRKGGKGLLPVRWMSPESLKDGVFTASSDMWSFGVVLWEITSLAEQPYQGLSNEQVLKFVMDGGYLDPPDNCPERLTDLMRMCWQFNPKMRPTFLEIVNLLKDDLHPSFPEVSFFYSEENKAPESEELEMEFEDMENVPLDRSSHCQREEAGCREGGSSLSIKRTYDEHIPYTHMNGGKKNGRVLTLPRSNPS

[5] = biological target: Melanocortin receptor 5 (Homo sapiens, UniProt P33032); format: cell membranes, HEK293, Membrane; also: in other assays of this panel Not Active means under 50% inhibition at 10 µM
Chain of Melanocortin receptor 5 (P33032 whole entry): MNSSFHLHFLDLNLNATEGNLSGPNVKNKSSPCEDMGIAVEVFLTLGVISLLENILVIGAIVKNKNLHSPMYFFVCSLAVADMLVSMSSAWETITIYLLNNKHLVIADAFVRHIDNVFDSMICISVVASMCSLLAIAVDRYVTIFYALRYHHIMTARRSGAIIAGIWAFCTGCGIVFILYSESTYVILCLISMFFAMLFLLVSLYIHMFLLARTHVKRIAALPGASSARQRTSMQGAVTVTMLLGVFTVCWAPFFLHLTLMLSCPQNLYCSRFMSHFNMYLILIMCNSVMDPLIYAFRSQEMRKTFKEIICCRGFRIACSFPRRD

[6] = biological target: T1, Amine oxidase [flavin-containing] A (Homo sapiens, UniProt P21397); assay: DRUGMATRIX: Monoamine Oxidase MAO-A enzyme inhibition (substrate: Kynuramine); design: species or system BTI-TN-5B1-4; conditions: bti-tn-5b1-4; Not Active = under 50% inhibition at 10 µM
T1 sequence (P21397 whole entry): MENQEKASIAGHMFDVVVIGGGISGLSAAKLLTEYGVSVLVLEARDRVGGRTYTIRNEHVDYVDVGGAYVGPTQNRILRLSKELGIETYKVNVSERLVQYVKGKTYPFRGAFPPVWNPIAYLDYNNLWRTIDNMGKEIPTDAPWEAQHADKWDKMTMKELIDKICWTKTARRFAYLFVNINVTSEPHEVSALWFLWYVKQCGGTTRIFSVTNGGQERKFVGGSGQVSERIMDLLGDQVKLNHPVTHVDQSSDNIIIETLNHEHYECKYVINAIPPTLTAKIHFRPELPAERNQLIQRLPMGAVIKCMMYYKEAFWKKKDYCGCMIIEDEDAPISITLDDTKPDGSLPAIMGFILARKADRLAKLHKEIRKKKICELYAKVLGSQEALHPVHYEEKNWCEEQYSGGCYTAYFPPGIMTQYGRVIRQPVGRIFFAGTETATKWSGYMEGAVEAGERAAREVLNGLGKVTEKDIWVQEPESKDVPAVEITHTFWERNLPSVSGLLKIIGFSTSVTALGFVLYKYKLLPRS

SMILES	IC50 [1]	Ki [1]	IC50 [2]	IC50 [3]	Ki [3]	IC50 [4]	IC50 ([5]; hek293)	IC50 [6]	IC50 ([3]; read-out: IC50)	Ki ([3]; read-out: Ki)	IC50 ([5]; read-out: IC50)	Ki ([5]; read-out: Ki)
C[C@@H]1C[C@H]2[C@@H]3CCC4=CC(=O)C=C[C@]4(C)[C@@]3(F)[C@@H](O)C[C@]2(C)[C@@]1(O)C(=O)CO [DEXAMETHASONE]	Not Active	Not Active	Not Active	Not Active	Not Active	Not Active	Not Active	Not Active				
CN(C)CC[C@@H](c1ccc(Cl)cc1)c1ccccn1 [DEXCHLORPHENIRAMINE]	Not Active	Not Active	Not Active			Not Active	Not Active	Not Active	3.81 µM	3.7 µM		
C[C@@H]1CC[C@@]2(OC1)O[C@H]1[C@@H](O)[C@H]3[C@@H]4CC[C@H]5C[C@@H](O[C@@H]6O[C@H](CO)[C@H](O[C@@H]7O[C@H](CO)C(O)[C@H](O[C@@H]8OC[C@@H](O)[C@H](O)[C@H]8O)[C@H]7O[C@@H]7O[C@H](CO)[C@H](O)[C@H](O[C@@H]8O[C@H](CO)[C@@H](O)[C@H](O)[C@H]8O)[C@H]7O)[C@H](O)[C@H]6O)[C@H](O)C[C@]5(C)[C@H]4CC[C@]3(C)[C@H]1[C@@H]2C (stereo partly drawn) [DIGITONIN]	Not Active	Not Active	Not Active	Not Active	Not Active	Not Active		Not Active			3.88 µM	3.64 µM
OC(CCCN1CCCCC1)(c1ccccc1)c1ccccc1 [DIPHENIDOL]	Not Active	Not Active	Not Active			Not Active	Not Active	Not Active	4.5 µM	4.38 µM		
C[C@H]1O[C@@H](n2cc(F)c(=O)[nH]c2=O)[C@H](O)[C@@H]1O [DOXIFLURIDINE]	Not Active	Not Active	Not Active	Not Active	Not Active	Not Active	Not Active	Not Active				
Cn1c(=O)c2c(ncn2CC(O)CO)n(C)c1=O (stereo not drawn) [DYPHYLLINE]	Not Active	Not Active	Not Active	Not Active	Not Active	Not Active	Not Active	Not Active				
CC[C@H]1CN2CCc3cc(OC)c(OC)cc3[C@@H]2C[C@@H]1C[C@H]1NCCc2cc(OC)c(OC)cc21 [EMETINE]	Not Active	Not Active	Not Active	Not Active	Not Active	Not Active	Not Active	Not Active				
C[C@@H](CO)NC(=O)[C@@H]1C=C2c3cccc4[nH]cc(c34)C[C@H]2N(C)C1 [ERGONOVINE]	Not Active	Not Active	Not Active	Not Active	Not Active	Not Active	Not Active	Not Active				
COC(=O)CCc1ccc(OCC(O)CNC(C)C)cc1 (stereo not drawn) [ESMOLOL]	Not Active	Not Active	Not Active	Not Active	Not Active	Not Active	Not Active	Not Active				
CCC1(C)CC(=O)NC1=O (stereo not drawn) [ETHOSUXIMIDE]	Not Active	Not Active	Not Active	Not Active	Not Active	Not Active	Not Active	Not Active				
COc1cc([C@@H]2c3cc4c(cc3[C@@H](O[C@@H]3O[C@@H]5CO[C@@H](C)O[C@H]5[C@H](O)[C@H]3O)[C@H]3COC(=O)[C@H]23)OCO4)cc(OC)c1O [ETOPOSIDE]	Not Active	Not Active	Not Active	Not Active	Not Active	Not Active	Not Active	Not Active				
C=CCc1ccc(O)c(OC)c1 [EUGENOL]	Not Active	Not Active	Not Active	Not Active	Not Active	Not Active	Not Active	Not Active				
CC(C(=O)O)c1cccc(Oc2ccccc2)c1 (stereo not drawn) [FENOPROFEN]	Not Active	Not Active	Not Active	Not Active	Not Active	Not Active	Not Active	Not Active				
CC(C)(C)NC(=O)[C@H]1CC[C@H]2[C@@H]3CC[C@H]4NC(=O)C=C[C@]4(C)[C@H]3CC[C@]12C [FINASTERIDE]	Not Active	Not Active	Not Active	Not Active	Not Active	Not Active	Not Active	Not Active				
COc1ccc2c3c1O[C@H]1C[C@@H](O)C=C[C@@]31CCN(C)C2 [GALANTAMINE]	Not Active	Not Active	Not Active	Not Active	Not Active	Not Active	Not Active	Not Active				
Nc1ccn([C@@H]2O[C@H](CO)[C@@H](O)C2(F)F)c(=O)n1 [GEMCITABINE]	Not Active	Not Active	Not Active	Not Active	Not Active	Not Active	Not Active	Not Active				
CC(C)=CCC/C(C)=C/CO [GERANIOL]	Not Active	Not Active	Not Active	Not Active	Not Active	Not Active	Not Active	Not Active				
N=C(N)NC(=O)Cc1c(Cl)cccc1Cl [GUANFACINE]	Not Active	Not Active	Not Active	Not Active	Not Active	Not Active	Not Active	Not Active				
Oc1c(Cl)cc(Cl)c(Cl)c1Cc1c(O)c(Cl)cc(Cl)c1Cl [HEXACHLOROPHENE]	Not Active	Not Active	Not Active	Not Active	Not Active	Not Active	Not Active	Not Active				
NNc1nncc2ccccc12 [HYDRALAZINE]	Not Active	Not Active	Not Active	Not Active	Not Active	Not Active	Not Active	Not Active				
CC(=O)[C@@]1(O)CC[C@H]2[C@@H]3CCC4=CC(=O)CC[C@]4(C)[C@H]3CC[C@@]21C [HYDROXYPROGESTERONE]	Not Active	Not Active	Not Active	Not Active	Not Active	Not Active	Not Active	Not Active				
COC1=C(OC)C(=O)C(CCCCCCCCCCO)=C(C)C1=O [IDEBENONE]	Not Active	Not Active	Not Active	Not Active	Not Active	Not Active	Not Active	Not Active				
CC(C)NNC(=O)c1ccncc1 [IPRONIAZID]	Not Active	Not Active	Not Active	Not Active	Not Active	Not Active	Not Active	Not Active				
Cc1c(OCC(F)(F)F)ccnc1C[S+]([O-])c1nc2ccccc2[nH]1 (stereo not drawn) [LANSOPRAZOLE]	Not Active	Not Active	Not Active	Not Active	Not Active	Not Active	Not Active	Not Active				
O=c1cc(N2CCOCC2)oc2c(-c3ccccc3)cccc12 [LY-294002]	Not Active	Not Active	Not Active	Not Active	Not Active	Not Active	Not Active	Not Active				
COc1ccc2[nH]cc(CCNC(C)=O)c2c1 [MELATONIN]	Not Active	Not Active	Not Active	Not Active	Not Active	Not Active	Not Active	Not Active				
NC(=O)C[S+]([O-])C(c1ccccc1)c1ccccc1 (stereo not drawn) [MODAFINIL]	Not Active	Not Active	Not Active	Not Active	Not Active	Not Active	Not Active	Not Active				
CCN(CC)CCOCCC1=CCC2CC1C2(C)C (stereo not drawn) [MYRTECAINE]	Not Active	Not Active	Not Active	Not Active	Not Active	Not Active	Not Active	Not Active				
O=C(O)c1cccnc1Nc1cccc(C(F)(F)F)c1 [NIFLUMIC ACID]	Not Active	Not Active	Not Active	Not Active	Not Active	Not Active	Not Active	Not Active				
